# According to article PMC8213057, “Targeting ALK2: An Open Science Approach to Developing Therapeutics for the Treatment of Diffuse Intrinsic Pontine Glioma” (Journal of Medicinal Chemistry, 2020):
# Experiments:
# FGFR4 = FGFR4 (Homo sapiens, UniProt P22455); settings: 1 μM; Run 1, Run 2
# PAK4 = PAK4 (Homo sapiens, UniProt O96013); settings: 1 μM; Run 1, Run 2
# EPHA6 = biological target: T1, EPHA6 (Homo sapiens, UniProt Q9UF33); settings: 1 μM; Run 1, Run 2
# T1 sequence (Q9UF33 23-1036): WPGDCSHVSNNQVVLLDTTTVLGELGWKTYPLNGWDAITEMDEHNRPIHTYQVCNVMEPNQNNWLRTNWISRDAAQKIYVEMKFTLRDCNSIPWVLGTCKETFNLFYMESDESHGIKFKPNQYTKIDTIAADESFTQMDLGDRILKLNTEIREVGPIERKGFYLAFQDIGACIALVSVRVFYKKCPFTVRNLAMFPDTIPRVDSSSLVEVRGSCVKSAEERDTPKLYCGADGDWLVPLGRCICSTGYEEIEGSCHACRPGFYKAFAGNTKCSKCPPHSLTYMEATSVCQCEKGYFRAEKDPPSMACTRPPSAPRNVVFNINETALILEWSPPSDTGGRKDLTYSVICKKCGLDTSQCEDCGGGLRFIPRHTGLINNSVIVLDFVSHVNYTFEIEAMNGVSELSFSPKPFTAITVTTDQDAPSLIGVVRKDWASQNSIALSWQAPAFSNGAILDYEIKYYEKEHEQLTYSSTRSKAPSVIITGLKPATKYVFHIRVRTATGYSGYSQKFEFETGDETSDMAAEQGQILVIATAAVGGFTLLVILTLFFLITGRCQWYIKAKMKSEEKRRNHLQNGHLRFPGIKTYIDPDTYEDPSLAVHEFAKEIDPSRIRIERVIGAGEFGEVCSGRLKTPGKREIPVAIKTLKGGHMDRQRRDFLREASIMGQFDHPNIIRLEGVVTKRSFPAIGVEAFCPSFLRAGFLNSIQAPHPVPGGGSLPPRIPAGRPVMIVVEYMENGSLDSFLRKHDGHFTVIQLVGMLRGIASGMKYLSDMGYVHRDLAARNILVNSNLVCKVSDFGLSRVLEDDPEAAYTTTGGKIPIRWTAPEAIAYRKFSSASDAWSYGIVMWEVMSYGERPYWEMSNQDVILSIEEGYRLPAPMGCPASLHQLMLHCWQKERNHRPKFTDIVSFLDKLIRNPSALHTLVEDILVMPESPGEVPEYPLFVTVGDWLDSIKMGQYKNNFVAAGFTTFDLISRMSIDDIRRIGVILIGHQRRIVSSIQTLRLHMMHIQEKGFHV
# Haspin = biological target: T2, Haspin (Homo sapiens, UniProt Q8TF76); experiment: biochemical; settings: read-out: % enzyme activity, 1 μM; Run 1, Run 2
# T2 sequence (Q8TF76 1-798): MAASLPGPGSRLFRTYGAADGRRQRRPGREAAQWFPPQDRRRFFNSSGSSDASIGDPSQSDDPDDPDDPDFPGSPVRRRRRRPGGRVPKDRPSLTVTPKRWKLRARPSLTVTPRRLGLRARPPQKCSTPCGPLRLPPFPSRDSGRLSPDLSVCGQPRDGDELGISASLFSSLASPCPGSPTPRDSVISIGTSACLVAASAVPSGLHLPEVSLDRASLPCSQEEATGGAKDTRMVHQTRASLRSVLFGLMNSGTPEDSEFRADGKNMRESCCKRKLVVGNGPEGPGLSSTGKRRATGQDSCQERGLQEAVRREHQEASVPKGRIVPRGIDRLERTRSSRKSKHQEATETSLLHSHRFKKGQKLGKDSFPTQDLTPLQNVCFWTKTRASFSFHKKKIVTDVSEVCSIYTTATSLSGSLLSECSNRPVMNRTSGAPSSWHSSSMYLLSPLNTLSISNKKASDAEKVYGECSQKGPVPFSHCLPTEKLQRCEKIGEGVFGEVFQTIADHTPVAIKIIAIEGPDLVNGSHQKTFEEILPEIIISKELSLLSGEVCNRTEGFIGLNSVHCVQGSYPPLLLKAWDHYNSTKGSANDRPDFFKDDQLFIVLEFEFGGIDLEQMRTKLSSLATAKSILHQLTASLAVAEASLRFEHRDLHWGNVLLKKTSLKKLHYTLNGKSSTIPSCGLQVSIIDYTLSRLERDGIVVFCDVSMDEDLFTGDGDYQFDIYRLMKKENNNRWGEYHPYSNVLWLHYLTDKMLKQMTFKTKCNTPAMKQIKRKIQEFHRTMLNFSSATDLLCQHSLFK
# CAMK1d = CAMK1d (Homo sapiens, UniProt Q8IU85); settings: 1 μM; Run 1, Run 2
# Sequence of CAMK1d (Q8IU85 whole entry): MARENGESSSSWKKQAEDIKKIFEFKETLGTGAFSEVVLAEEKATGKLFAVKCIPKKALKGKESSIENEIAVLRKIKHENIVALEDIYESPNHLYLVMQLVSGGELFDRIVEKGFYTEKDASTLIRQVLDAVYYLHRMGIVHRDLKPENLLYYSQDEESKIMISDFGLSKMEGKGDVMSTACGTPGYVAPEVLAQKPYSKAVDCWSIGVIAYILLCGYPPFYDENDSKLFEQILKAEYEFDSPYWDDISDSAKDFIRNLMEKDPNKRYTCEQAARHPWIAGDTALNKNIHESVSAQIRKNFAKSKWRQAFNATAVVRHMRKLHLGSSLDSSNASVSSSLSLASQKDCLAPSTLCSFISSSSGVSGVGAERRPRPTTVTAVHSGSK
# c-MET = c-MET (Homo sapiens, UniProt P08581); settings: 1 μM; Run 1, Run 2
# Sequence of c-MET (P08581 25-1390): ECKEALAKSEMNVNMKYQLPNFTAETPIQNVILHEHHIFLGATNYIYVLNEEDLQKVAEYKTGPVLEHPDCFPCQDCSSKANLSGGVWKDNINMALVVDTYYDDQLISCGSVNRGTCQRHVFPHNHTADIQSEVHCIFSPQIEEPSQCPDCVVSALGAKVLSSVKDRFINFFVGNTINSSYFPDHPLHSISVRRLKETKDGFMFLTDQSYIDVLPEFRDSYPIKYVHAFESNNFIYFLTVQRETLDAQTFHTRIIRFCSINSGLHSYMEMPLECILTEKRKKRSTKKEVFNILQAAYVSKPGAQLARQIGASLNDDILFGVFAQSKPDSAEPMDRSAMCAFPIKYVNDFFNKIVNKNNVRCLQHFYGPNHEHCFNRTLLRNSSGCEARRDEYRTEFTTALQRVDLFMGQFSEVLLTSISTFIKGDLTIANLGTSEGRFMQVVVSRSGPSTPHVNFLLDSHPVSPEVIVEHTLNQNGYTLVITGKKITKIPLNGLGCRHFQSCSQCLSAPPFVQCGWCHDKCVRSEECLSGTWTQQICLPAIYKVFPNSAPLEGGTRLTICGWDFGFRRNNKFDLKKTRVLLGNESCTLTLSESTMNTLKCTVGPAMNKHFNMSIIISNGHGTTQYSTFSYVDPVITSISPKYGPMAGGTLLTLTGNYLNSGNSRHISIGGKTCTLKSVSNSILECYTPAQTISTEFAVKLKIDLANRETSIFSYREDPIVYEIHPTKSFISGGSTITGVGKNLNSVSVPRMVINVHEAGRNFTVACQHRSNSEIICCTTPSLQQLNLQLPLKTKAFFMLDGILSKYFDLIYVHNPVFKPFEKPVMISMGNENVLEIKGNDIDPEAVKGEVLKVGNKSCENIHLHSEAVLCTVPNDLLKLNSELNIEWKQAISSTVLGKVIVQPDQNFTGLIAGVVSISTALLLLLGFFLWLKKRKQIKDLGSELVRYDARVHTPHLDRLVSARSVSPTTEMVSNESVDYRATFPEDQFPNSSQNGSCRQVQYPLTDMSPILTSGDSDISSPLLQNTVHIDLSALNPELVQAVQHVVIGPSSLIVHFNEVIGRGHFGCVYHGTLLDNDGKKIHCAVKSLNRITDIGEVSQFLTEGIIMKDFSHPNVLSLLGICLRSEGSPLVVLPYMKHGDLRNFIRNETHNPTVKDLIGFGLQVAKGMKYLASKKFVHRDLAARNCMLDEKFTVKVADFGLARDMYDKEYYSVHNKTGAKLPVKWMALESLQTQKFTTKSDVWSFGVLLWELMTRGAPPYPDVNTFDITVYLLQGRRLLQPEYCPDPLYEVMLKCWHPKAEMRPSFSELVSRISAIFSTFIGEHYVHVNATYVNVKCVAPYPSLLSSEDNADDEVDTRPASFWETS
# PKCnu/PRKD3 = biological target: T3, PKCnu/PRKD3 (Homo sapiens, UniProt O94806); settings: 1 μM; Run 1, Run 2
# T3 sequence (O94806 1-890): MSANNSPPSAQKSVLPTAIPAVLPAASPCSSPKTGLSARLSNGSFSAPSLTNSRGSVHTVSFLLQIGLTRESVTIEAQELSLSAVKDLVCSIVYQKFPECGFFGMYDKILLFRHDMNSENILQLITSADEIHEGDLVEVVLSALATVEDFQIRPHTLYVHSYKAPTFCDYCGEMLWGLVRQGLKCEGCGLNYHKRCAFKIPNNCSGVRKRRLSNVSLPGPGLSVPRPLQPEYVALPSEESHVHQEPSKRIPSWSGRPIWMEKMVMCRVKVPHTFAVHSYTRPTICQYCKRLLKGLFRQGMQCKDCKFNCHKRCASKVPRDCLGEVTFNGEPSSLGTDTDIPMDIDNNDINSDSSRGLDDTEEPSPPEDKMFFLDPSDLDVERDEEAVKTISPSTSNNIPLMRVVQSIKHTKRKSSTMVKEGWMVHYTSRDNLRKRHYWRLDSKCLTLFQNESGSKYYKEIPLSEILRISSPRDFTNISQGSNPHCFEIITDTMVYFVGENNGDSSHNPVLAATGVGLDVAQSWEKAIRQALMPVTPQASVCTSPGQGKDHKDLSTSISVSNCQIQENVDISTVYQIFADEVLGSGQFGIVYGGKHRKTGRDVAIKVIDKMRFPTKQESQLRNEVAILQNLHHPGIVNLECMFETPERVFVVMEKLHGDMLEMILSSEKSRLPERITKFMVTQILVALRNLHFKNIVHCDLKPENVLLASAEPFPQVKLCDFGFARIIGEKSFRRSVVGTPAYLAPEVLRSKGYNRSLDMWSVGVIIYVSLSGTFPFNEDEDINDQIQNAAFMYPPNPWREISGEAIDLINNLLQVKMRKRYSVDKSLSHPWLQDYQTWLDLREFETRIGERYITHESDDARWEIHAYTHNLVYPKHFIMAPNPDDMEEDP
# FGFR1 = FGFR1 (Homo sapiens, UniProt P11362); settings: 1 μM; Run 1, Run 2
# Sequence of FGFR1 (P11362 22-822): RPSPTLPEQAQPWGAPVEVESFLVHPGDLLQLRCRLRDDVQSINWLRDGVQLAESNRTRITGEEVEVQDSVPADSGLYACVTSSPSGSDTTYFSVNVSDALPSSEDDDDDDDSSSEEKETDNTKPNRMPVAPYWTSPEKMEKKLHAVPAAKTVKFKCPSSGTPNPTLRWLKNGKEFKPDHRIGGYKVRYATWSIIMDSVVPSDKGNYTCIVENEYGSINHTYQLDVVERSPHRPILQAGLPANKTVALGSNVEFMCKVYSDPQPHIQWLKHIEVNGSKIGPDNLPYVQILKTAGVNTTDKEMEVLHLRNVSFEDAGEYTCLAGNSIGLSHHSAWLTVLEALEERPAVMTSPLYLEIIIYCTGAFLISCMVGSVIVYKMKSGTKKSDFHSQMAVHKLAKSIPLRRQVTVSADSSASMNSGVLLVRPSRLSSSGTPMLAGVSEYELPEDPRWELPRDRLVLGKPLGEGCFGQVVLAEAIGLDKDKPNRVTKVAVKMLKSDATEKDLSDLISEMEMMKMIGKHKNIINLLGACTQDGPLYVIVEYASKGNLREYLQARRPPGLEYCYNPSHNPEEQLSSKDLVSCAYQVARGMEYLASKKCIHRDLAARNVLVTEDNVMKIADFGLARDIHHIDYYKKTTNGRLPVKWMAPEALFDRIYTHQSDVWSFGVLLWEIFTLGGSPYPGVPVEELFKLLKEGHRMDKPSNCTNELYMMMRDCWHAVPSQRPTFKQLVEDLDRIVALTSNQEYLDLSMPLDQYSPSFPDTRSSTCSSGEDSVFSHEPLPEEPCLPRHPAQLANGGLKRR
# Sequence of PAK4 (O96013 whole entry): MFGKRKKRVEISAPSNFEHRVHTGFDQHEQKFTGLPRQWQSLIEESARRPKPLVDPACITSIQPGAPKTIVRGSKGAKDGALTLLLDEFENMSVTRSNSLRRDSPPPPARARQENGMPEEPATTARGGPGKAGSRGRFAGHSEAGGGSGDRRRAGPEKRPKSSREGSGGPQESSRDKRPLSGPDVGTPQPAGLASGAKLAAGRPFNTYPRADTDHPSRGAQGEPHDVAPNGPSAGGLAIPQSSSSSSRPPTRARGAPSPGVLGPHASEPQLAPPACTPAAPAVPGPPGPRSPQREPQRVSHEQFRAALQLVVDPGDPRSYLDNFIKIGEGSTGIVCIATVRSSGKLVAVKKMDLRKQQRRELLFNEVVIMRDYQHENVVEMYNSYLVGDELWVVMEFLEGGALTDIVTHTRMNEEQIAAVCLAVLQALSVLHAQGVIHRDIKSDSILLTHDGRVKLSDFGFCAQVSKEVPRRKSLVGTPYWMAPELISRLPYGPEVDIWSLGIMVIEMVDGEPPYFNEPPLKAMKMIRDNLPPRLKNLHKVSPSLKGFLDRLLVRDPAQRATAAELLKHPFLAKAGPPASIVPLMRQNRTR
# Sequence of FGFR4 (P22455 22-802): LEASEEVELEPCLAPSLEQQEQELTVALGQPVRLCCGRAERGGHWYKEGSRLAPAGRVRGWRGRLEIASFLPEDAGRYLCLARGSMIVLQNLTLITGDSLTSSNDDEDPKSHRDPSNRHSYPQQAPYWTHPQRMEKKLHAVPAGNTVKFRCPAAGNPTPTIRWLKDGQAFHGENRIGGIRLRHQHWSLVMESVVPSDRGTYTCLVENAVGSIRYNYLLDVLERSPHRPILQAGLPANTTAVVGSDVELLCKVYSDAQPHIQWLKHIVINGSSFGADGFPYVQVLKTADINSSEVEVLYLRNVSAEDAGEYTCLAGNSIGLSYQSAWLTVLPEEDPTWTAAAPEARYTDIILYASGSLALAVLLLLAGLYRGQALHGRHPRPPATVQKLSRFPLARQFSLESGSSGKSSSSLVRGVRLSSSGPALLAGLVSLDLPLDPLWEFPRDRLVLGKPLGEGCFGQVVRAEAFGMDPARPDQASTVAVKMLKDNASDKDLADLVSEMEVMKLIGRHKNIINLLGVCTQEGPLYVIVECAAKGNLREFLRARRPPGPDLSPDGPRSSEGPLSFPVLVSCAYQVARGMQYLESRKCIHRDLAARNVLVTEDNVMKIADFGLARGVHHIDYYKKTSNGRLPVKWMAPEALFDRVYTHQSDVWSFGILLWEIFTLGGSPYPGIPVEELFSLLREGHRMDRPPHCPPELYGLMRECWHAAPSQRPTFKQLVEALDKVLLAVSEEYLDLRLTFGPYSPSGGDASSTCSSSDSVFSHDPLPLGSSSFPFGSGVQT
SMILES,% enzyme activity (FGFR4),% enzyme activity (PAK4),% enzyme activity (EPHA6),remaining activity at 1 µM (Haspin),% enzyme activity (CAMK1d),% enzyme activity (c-MET),% enzyme activity (PKCnu/PRKD3),% enzyme activity (FGFR1)
"COc1cc(-c2cncc(-c3ccc(N4CCN(C)CC4)cc3)c2C)cc(F)c1C(N)=O [Compound 26a, 2-Fluoro-6-methoxy-4-(4-methyl-5-(4-(4-methylpiperazin-1-yl)phenyl)pyridin-3-yl)benzamide]",97.61%,98.21%,103.54%,83.3%,98.20%,98.28%,83.26%,96.52%
"COc1cc(-c2cncc(-c3ccc(N4C[C@@H](C)N(C)[C@@H](C)C4)cc3)c2C)cc(F)c1C(N)=O [Compound 26c, 2-Fluoro-6-methoxy-4-(4-methyl-5-(4-((3R,5S)-3,4,5-trimethylpiperazin-1-yl)phenyl)pyridin-3-yl)benzamide]",98.99%,98.82%,103.73%,84.8%,97.72%,106.76%,89.59%,99.91%
